Measured values: the NIST ThermoML archive (doi:10.1021/acs.jced.8b00692)

Assay: xn = mol fraction of the nth substance listed
Conditions: 102 kPa, Liquid; for viscosity: Concentric cylinders viscometry; for speed of sound: Frequency=3 MHz, Single path-length method; for mass density: Vibrating tube method

CCCCCCC1CCCCC1 [hexylcyclohexane] + CCCCCCCCCCCCCCCC
Conditions | mass density [kg/m3] | speed of sound [m/s] | viscosity [mPa·s]
293.15 K, x1 = 0.1003 | 775.83 | 1357.1 | 3.35
293.15 K, x1 = 0.2002 | 778.43 | 1356.8 | 3.21
293.15 K, x1 = 0.2996 | 781.19 | 1356.9 | 3.09
293.15 K, x1 = 0.4192 | 784.77 | 1357 | 2.93
293.15 K, x1 = 0.5004 | 787.39 | 1357.1 | 2.82
293.15 K, x1 = 0.603 | 790.94 | 1357.4 | 2.7
293.15 K, x1 = 0.8003 | 798.59 | 1358.6 | 2.44
293.15 K, x1 = 1 | 807.71 | 1361 | 2.2
303.15 K, x1 = 0.1003 | 768.88 | 1319.8 | 2.66
303.15 K, x1 = 0.2002 | 771.48 | 1319.5 | 2.57
303.15 K, x1 = 0.2996 | 774.23 | 1319.6 | 2.47
303.15 K, x1 = 0.4192 | 777.8 | 1319.6 | 2.36
303.15 K, x1 = 0.5004 | 780.41 | 1319.7 | 2.28
303.15 K, x1 = 0.603 | 783.93 | 1319.8 | 2.19
303.15 K, x1 = 0.8003 | 791.52 | 1320.7 | 2
303.15 K, x1 = 1 | 800.56 | 1322.1 | 1.81
313.15 K, x1 = 0.1003 | 761.95 | 1283.2 | 2.17
313.15 K, x1 = 0.2002 | 764.54 | 1282.8 | 2.1
313.15 K, x1 = 0.2996 | 767.28 | 1282.9 | 2.02
313.15 K, x1 = 0.4192 | 770.83 | 1282.8 | 1.94
313.15 K, x1 = 0.5004 | 773.42 | 1282.9 | 1.87
313.15 K, x1 = 0.603 | 776.92 | 1282.9 | 1.8
313.15 K, x1 = 0.8003 | 784.45 | 1283.5 | 1.65
313.15 K, x1 = 1 | 793.4 | 1284.2 | 1.51
323.15 K, x1 = 0.1003 | 755.02 | 1247.3 | 1.8
323.15 K, x1 = 0.2002 | 757.6 | 1246.9 | 1.75
323.15 K, x1 = 0.2996 | 760.32 | 1246.9 | 1.68
323.15 K, x1 = 0.4192 | 763.85 | 1246.7 | 1.62
323.15 K, x1 = 0.5004 | 766.42 | 1246.7 | 1.57
323.15 K, x1 = 0.603 | 769.89 | 1246.6 | 1.52
323.15 K, x1 = 0.8003 | 777.35 | 1246.9 | 1.4
323.15 K, x1 = 1 | 786.22 | 1247.1 | 1.29
333.15 K, x1 = 0.1003 | 748.09 | 1212.3 | 1.51
333.15 K, x1 = 0.2002 | 750.65 | 1211.9 | 1.47
333.15 K, x1 = 0.2996 | 753.35 | 1211.7 | 1.42
333.15 K, x1 = 0.4192 | 756.86 | 1211.5 | 1.37
333.15 K, x1 = 0.5004 | 759.41 | 1211.4 | 1.33
333.15 K, x1 = 0.603 | 762.86 | 1211.2 | 1.29
333.15 K, x1 = 0.8003 | 770.24 | 1211.1 | 1.2
333.15 K, x1 = 1 | 779.02 | 1211 | 1.09
343.15 K, x1 = 0.1003 | 741.2 | – | 1.29
343.15 K, x1 = 0.2002 | 743.7 | – | 1.27
343.15 K, x1 = 0.2996 | 746.5 | – | 1.22
343.15 K, x1 = 0.4192 | 749.9 | – | 1.18
343.15 K, x1 = 0.5004 | 752.4 | – | 1.15
343.15 K, x1 = 0.603 | 755.9 | – | 1.13
343.15 K, x1 = 0.8003 | 763.1 | – | 1.05
343.15 K, x1 = 1 | 771.8 | – | 0.964
353.15 K, x1 = 0.1003 | 734.2 | – | 1.12
353.15 K, x1 = 0.2002 | 736.7 | – | 1.09
353.15 K, x1 = 0.2996 | 739.5 | – | 1.06
353.15 K, x1 = 0.4192 | 742.9 | – | 1.02
353.15 K, x1 = 0.5004 | 745.4 | – | 1
353.15 K, x1 = 0.603 | 748.8 | – | 0.971
353.15 K, x1 = 0.8003 | 756 | – | 0.919
353.15 K, x1 = 1 | 764.6 | – | 0.847
363.15 K, x1 = 0.1003 | 727.3 | – | 0.981
363.15 K, x1 = 0.2002 | 729.7 | – | 0.977
363.15 K, x1 = 0.2996 | 732.5 | – | 0.931
363.15 K, x1 = 0.4192 | 735.9 | – | 0.901
363.15 K, x1 = 0.5004 | 738.3 | – | 0.88
363.15 K, x1 = 0.603 | 741.7 | – | 0.873
363.15 K, x1 = 0.8003 | 748.8 | – | 0.817
363.15 K, x1 = 1 | 757.3 | – | 0.758
